From paper PMC7897990, “TriTOX: A novel Trichomonas vaginalis assay platform for high-throughput screening of compound libraries” (International Journal for Parasitology: Drugs and Drug …, 2021)
Read-outs that look alike come from different tables or passages of the source. Starred links: 1 amine or outer side, 2 acyl side, 3 side chain; linkers in the order of their positions; H or OH if unused. Positions of bridges follow the written chain, without caps; N, C: chain ends. Non-standard residues stand in square brackets, D forms with d. Residues, ends and D or L forms follow the SMILES beside them. ξ: configuration not given here. *: point of attachment. hTyr(3S-OH,4S-OH,3'-OSO3H) = N[C@H](C(=O)O)[C@H](O)[C@@H](O)c1ccc(O)c(OS(=O)(=O)O)c1; pTerphenylCO(4''-OnC5H11) = CCCCCOc1ccc(-c2ccc(-c3ccc(C(=O)*)cc3)cc2)cc1; Orn(4R-OH,5R-OH) = O=C([C@H](C[C@@H](O)[C@@H](O)N[*:3])N[*:1])[*:2]; ξOrn(4,5-diOH) = O=C(C(CC(O)C(O)N[*:3])N[*:1])[*:2]; ξhTyr(βξ-OH,γξ-OH) = NC(C(=O)O)C(O)C(O)c1ccc(O)cc1; Pro(3S-OH,4S-Me) = C[C@H]1CN[C@H](C(=O)O)[C@H]1O; Gln(3R-OH) = NC(=O)C[C@@H](O)[C@H](N)C(=O)O; ξPro(3ξ-OH,4ξ-Me) = CC1CNC(C(=O)O)C1O; Palmitoyl = CCCCCCCCCCCCCCCC(=O)*; Hyp = O=C(O)[CH]1C[CH](O)CN1

Legend:
[1] = tested on: Trichomonas vaginalis G3 trophozoites; conditions: for T.vaginalis_Absorbance_Rep1: replicate 1, raw absorbance; for T.vaginalis_Absorbance_Rep2: replicate 2, raw absorbance
[2] = tested on: nontumorigenic neonatal foreskin fibroblast (NFF) cell line
[3] = HTS single concentration, parasite screen 1 µg/mL, replicate 1
[4] = HTS single concentration, parasite screen 1 µg/mL, replicate 2
[5] = NFF_NS1 screen 5 µg/mL, single concentration
[6] = parasite screen at 1 µg/mL, replicate 1
[7] = parasite screen at 1 µg/mL, replicate 2
[8] = NFF_NS1 screen at 5 µg/mL, NFF cells
[9] = replicate 1, parasite screen at 1 µg/mL
[10] = replicate 2, parasite screen at 1 µg/mL
[11] = HTS replicate 1, parasite screen 1 µg/mL
[12] = HTS replicate 2, parasite screen 1 µg/mL
[13] = NFF fibroblasts, single concentration 5 µg/mL
[14] = HTS, parasite screen at 1 µg/mL, replicate 1
[15] = HTS, parasite screen at 1 µg/mL
[16] = HTS, parasite screen at 1 µg/mL, replicate 2
[17] = NFF fibroblast screen at 5 µg/mL, A = active, I = inactive

CCCCCOc1ccc(-c2ccc(-c3ccc(C(=O)NC4CC(O)C(O)NC(=O)C5C(O)C(C)CN5C(=O)C(C(C)O)NC(=O)C(C(O)C(O)c5ccc(O)cc5)NC(=O)C5CC(O)CN5C(=O)C(C(C)O)NC4=O)cc3)cc2)cc1 (stereo not drawn) [BIA-A1423] ({pTerphenylCO(4''-OnC5H11)}-[ξOrn(4,5-diOH)]T[Hyp][ξhTyr(βξ-OH,γξ-OH)]T[ξPro(3ξ-OH,4ξ-Me)]; lactam 1-C; configuration not given here)
T.vaginalis_%inb_Rep1 [1, 3]: 14.75% | T.vaginalis_%inb_Rep2 [1, 4]: 12.08% | NFF_Activity [2, 5]: I (otherwise these were reported as inactive (I))

C=C1C(=O)OC2C(=O)OC(CCCCCCCC)C12 (stereo not shown) [BIA-A1409]
T.vaginalis_%inb_Rep1 [1, 3]: 15.19% | T.vaginalis_%inb_Rep2 [1, 4]: 12.94% | NFF_Activity [2, 5]: A (active (A) compounds having >25% inhibitory activity)

CC1(C)C=Cc2c(ccc3ccc(=O)oc23)O1 [BIA-S1776]
T.vaginalis_%inb_Rep1 [1, 6]: 12.88% | T.vaginalis_%inb_Rep2 [1, 7]: 13.28% | NFF_Activity [2, 8]: I (otherwise these were reported as inactive (I))

CC(=O)Nc1c2sscc-2n(C)c1=O [BIA-T1138]
T.vaginalis_%inb_Rep1 [1, 6]: 100.00% | T.vaginalis_%inb_Rep2 [1, 7]: 97.56% | NFF_Activity [2, 8]: A (active (A) compounds having >25% inhibitory activity)

CC[C@H]1OC(=O)[C@H](C)[C@@H](O[C@H]2C[C@@](C)(OC)[C@@H](O)[C@H](C)O2)[C@H](C)[C@@H](O[C@@H]2O[C@H](C)C[C@H](N(C)C)[C@H]2O)[C@](C)(O)C[C@@H](C)/C(=N\OCOCCOC)[C@H](C)[C@@H](O)[C@]1(C)O [BIA-R1315]
T.vaginalis_%inb_Rep1 [1, 6]: 1.36% | T.vaginalis_%inb_Rep2 [1, 7]: 5.85% | NFF_Activity [2, 8]: I (otherwise these were reported as inactive (I))

COc1ccc2[nH]c3c(C)c4ccncc4c(C)c3c2c1 [BIA-M1952]
T.vaginalis_%inb_Rep1 [1, 9]: 5.30% | T.vaginalis_%inb_Rep2 [1, 10]: 7.25% | NFF_Activity ([2]; NFF cells, screen at 5 µg/mL): A (active (A) compounds having >25% inhibitory activity)

COc1oc(C2C/C(=C/C(C)=C/C(C)=C/C(C)=C/c3ccc([N+](=O)[O-])cc3)CO2)c(C)c(=O)c1C (stereo not shown) [Neoaureothin]
T.vaginalis_%inb_Rep1 [1, 11]: 14.76% | T.vaginalis_%inb_Rep2 [1, 12]: 12.19% | NFF_Activity [2, 13]: I (otherwise these were reported as inactive (I))

CC1=C[C@H]2C(=O)O[C@H]3C[C@@H](C/C=C(\C)C[C@@H](C)/C=C/C=C4\CO[C@H]([C@@H]1O)[C@@]42O)O[C@]1(C3)C[C@H](O)[C@H](C)[C@@H](/C(C)=C/C(C)C)O1 [Nemadectin]
T.vaginalis_%inb_Rep1 [1, 11]: 11.56% | T.vaginalis_%inb_Rep2 [1, 12]: 13.53% | NFF_Activity [2, 13]: I (otherwise these were reported as inactive (I))

CC[C@]1(C)C[C@@H](OC(=O)CSc2n[nH]c(N)n2)[C@]2(C)[C@H](C)CC[C@]3(CCC(=O)[C@H]32)[C@@H](C)[C@@H]1O [BIA-A1489]
T.vaginalis_%inb_Rep1 [1, 3]: 14.65% | T.vaginalis_%inb_Rep2 [1, 4]: 19.67% | NFF_Activity [2, 5]: I (otherwise these were reported as inactive (I))

CCCCCCCCCCCC(=O)N[C@H]1CCOC1=O [Dodecanoyl-L-homoserine lactone]
T.vaginalis_%inb_Rep1 [1, 14]: 9.75% | T.vaginalis_Absorbance_Rep1 [1, 15]: 0.89 | T.vaginalis_%inb_Rep2 [1, 16]: 12.87% | T.vaginalis_Absorbance_Rep2 [1, 15]: 0.798 | NFF_Activity ([2]; NFF_NS1 screen at 5 µg/mL): I (otherwise these were reported as inactive (I))

C[C@@H](O)[C@H]1C(=O)N2C(C(=O)[O-])=C(SC3Cn4cnc[n+]4C3)[C@H](C)[C@H]12 (stereo partly shown) [BIA-B1663]
T.vaginalis_%inb_Rep1 [1, 3]: 15.29% | T.vaginalis_%inb_Rep2 [1, 4]: 20.32% | NFF_Activity [2, 5]: I (otherwise these were reported as inactive (I))

CC[C@H](C)[C@H]1O[C@]2(C=C[C@@H]1C)C[C@@H]1C[C@@H](C/C=C(\C)[C@@H](O[C@H]3C[C@H](OC)[C@@H](O[C@H]4C[C@H](OC)[C@@H](O)[C@H](C)O4)[C@H](C)O3)[C@@H](C)/C=C/C=C3\CO[C@@H]4[C@H](O)C(C)=C[C@@H](C(=O)O1)[C@]34O)O2 [BIA-A1010]
T.vaginalis_%inb_Rep1 [1, 3]: 14.32% | T.vaginalis_%inb_Rep2 [1, 4]: 14.17% | NFF_Activity [2, 5]: I (otherwise these were reported as inactive (I))

C=CC(C)(C)C12CC3C(=O)Nc4ccccc4C(=O)N3C1Nc1ccccc12 (stereo not shown) [BIA-A1686]
T.vaginalis_%inb_Rep1 [1, 3]: 14.16% | T.vaginalis_%inb_Rep2 [1, 4]: 12.87% | NFF_Activity [2, 5]: I (otherwise these were reported as inactive (I))

CC=CC=CC1OC(O)(C(C)C(O)C(C)C2OC(=O)C(OC)=CC(C)=CC(C)C(O)C(C)CC(C)=CC=CC2OC)CC(OC2CC(O)C(O)C(C)O2)C1C (stereo not shown) [PC-766B]
T.vaginalis_%inb_Rep1 [1, 11]: 72.87% | T.vaginalis_%inb_Rep2 [1, 12]: 76.65% | NFF_Activity [2, 13]: A (active (A) compounds having >25% inhibitory activity)

CCCCCCCCCCCCCCCC(=O)N[C@H]1C[C@@H](O)[C@@H](O)NC(=O)[C@@H]2[C@@H](O)[C@@H](C)CN2C(=O)[C@H]([C@H](O)CC(N)=O)NC(=O)[C@H]([C@H](O)[C@@H](O)c2ccc(O)c(OS(=O)(=O)O)c2)NC(=O)[C@@H]2C[C@@H](O)CN2C(=O)[C@H]([C@@H](C)O)NC1=O [FR 901379] (Palmitoyl-[Orn(4R-OH,5R-OH)]T[Hyp][hTyr(3S-OH,4S-OH,3'-OSO3H)][Gln(3R-OH)][Pro(3S-OH,4S-Me)]; lactam 1-C)
T.vaginalis_%inb_Rep1 [1, 14]: 12.55% | T.vaginalis_Absorbance_Rep1 [1, 15]: 0.942 | T.vaginalis_%inb_Rep2 [1, 16]: 13.45% | T.vaginalis_Absorbance_Rep2 [1, 15]: 0.806 | NFF_Activity ([2]; NFF_NS1 screen at 5 µg/mL): I (otherwise these were reported as inactive (I))

CC1=C(O)C(=O)[C@@H]2O[C@@H]2C1=O [BIA-T1695]
T.vaginalis_%inb_Rep1 [1, 6]: 9.91% | T.vaginalis_%inb_Rep2 [1, 7]: 12.25% | NFF_Activity [2, 8]: A (active (A) compounds having >25% inhibitory activity)

CC1CCCC(O)CCCCCc2cc(O)cc(O)c2C(=O)O1 (stereo not drawn) [Zearalanol, alpha-]
T.vaginalis_%inb_Rep1 [1, 14]: 6.97% | T.vaginalis_%inb_Rep2 [1, 16]: 13.04% | NFF_Activity [2, 17]: I (otherwise these were reported as inactive (I))

O=C(O)c1cccc2nc3ccccc3nc12 [Tubermycin B]
T.vaginalis_%inb_Rep1 [1, 14]: 8.13% | T.vaginalis_%inb_Rep2 [1, 16]: 16.27% | NFF_Activity [2, 17]: I (otherwise these were reported as inactive (I))

[N-]=[N+]=NCC(=O)N[C@H](CO)[C@H](O)c1ccc([N+](=O)[O-])cc1 [BIA-A1485]
T.vaginalis_%inb_Rep1 [1, 3]: 12.55% | T.vaginalis_%inb_Rep2 [1, 4]: 16.12% | NFF_Activity [2, 5]: I (otherwise these were reported as inactive (I))

CC(=O)N[C@H]1CCOC1=O [BIA-A1493]
T.vaginalis_%inb_Rep1 [1, 3]: 15.89% | T.vaginalis_%inb_Rep2 [1, 4]: 26.61% | NFF_Activity [2, 5]: I (otherwise these were reported as inactive (I))

C=C1c2c(Cl)ccc(O)c2C(O)=C2C(=O)C3(O)C(O)=C(C(N)=O)C(=O)C(N(C)C)C3C(O)C12 (stereo not shown) [BIA-M1464]
T.vaginalis_%inb_Rep1 [1, 9]: 17.14% | T.vaginalis_%inb_Rep2 [1, 10]: 5.39% | NFF_Activity ([2]; NFF cells, screen at 5 µg/mL): I (otherwise these were reported as inactive (I))

CCCCC[C@@H]1CC[C@H](C)CCCCC(=O)N(C)[C@@H](Cc2ccc(OCCO)cc2)C(=O)O1 [PF1163B]
T.vaginalis_%inb_Rep1 [1, 11]: 17.85% | T.vaginalis_%inb_Rep2 [1, 12]: 14.30% | NFF_Activity [2, 13]: I (otherwise these were reported as inactive (I))

CCC(=O)[C@@H](C)[C@@H](O)[C@H](C)C[C@@H](C)[C@H]1OC(=O)C[C@@]2(O)CC=C(C)[C@H](O2)/C(C)=C/CCC[C@@H](O[C@H]2C[C@@H](O)[C@H](O)[C@@H](C)O2)/C=C/[C@H](C)C[C@H]1C [Venturicidin B]
T.vaginalis_%inb_Rep1 [1, 14]: 9.81% | T.vaginalis_%inb_Rep2 [1, 16]: 16.33% | NFF_Activity [2, 17]: I (otherwise these were reported as inactive (I))

Cc1cc(O)c(O)c2oc(=O)c3c(O)cc(O)cc3c12 [BIA-H1558]
T.vaginalis_%inb_Rep1 [1, 9]: 10.09% | T.vaginalis_%inb_Rep2 [1, 10]: 9.24% | NFF_Activity ([2]; NFF cells, screen at 5 µg/mL): I (otherwise these were reported as inactive (I))

CN1C(=O)c2ccccc2-n2c(nc3ccccc3c2=O)C12OC2c1ccccc1 (stereo not shown) [BIA-B1679]
T.vaginalis_%inb_Rep1 [1, 3]: 16.96% | T.vaginalis_%inb_Rep2 [1, 4]: 15.26% | NFF_Activity [2, 5]: I (otherwise these were reported as inactive (I))

O=C1CCCC2C3CC(CN12)C1CC(O)CCN1C3 (stereo not shown) [BIA-H1961]
T.vaginalis_%inb_Rep1 [1, 9]: 9.18% | T.vaginalis_%inb_Rep2 [1, 10]: 14.99% | NFF_Activity ([2]; NFF cells, screen at 5 µg/mL): I (otherwise these were reported as inactive (I))

CC[C@H](C)[C@H]1O[C@]2(CC[C@@H]1C)C[C@@H]1C[C@@H](C/C=C(\C)[C@@H](O[C@H]3C[C@H](OC)[C@@H](O)[C@H](C)O3)[C@@H](C)/C=C/C=C3\CO[C@@H]4[C@H](O)C(C)=C[C@@H](C(=O)O1)[C@]34O)O2 [BIA-I1150]
T.vaginalis_%inb_Rep1 [1, 9]: 15.62% | T.vaginalis_%inb_Rep2 [1, 10]: 12.38% | NFF_Activity ([2]; NFF cells, screen at 5 µg/mL): I (otherwise these were reported as inactive (I))

COC1C=CC=C(C)C(=O)NC2=CC(=O)C=C(C2=O)C(OC)C(C)CC(OC)C(OC)C(C)C=C(C)C1OC(N)=O (stereo not shown) [BIA-H1036]
T.vaginalis_%inb_Rep1 [1, 9]: 12.63% | T.vaginalis_%inb_Rep2 [1, 10]: 12.64% | NFF_Activity ([2]; NFF cells, screen at 5 µg/mL): I (otherwise these were reported as inactive (I))
